Measurements from US20260347373A1, “HETEROCYCLIC COMPOUNDS, COMPOSITIONS THEREOF, AND METHODS OF TREATMENT THEREWITH” (BeOne Medicines I GmbH, priority 2023, published 2026).
Like-named read-outs stand apart in the source and are kept apart here.

Columns and labels:
WT KRAS = WT KRAS (Homo sapiens, UniProt P01116); assay: KRAS WT Probe Displacement Assay (TR-FRET, GDP-loaded); assay type: binding
Text: (§1) The synthetic routes of probe 1 and 2, which have been disclosed in PCT/CN2022/070676, are hereby incorporated herein.

KRAS G12D = KRAS G12D (Homo sapiens, UniProt P01116, G12D); assay: KRAS G12D Probe Displacement Assay (TR-FRET, GDP-loaded); assay type: binding
Chain of KRAS G12D (P01116 1-188 isoform P01116-2 G12D): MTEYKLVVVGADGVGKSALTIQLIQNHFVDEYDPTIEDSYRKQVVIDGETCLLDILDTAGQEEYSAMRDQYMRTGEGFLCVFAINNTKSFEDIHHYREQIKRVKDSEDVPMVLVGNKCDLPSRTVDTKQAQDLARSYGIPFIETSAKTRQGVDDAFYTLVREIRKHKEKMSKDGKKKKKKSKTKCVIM
Text: as §1

[1] = KRAS WT, read-out: KRAS^WT Probe Displacement Assay IC50
[2] = KRAS G12D, read-out: KRAS^G12D Probe Displacement Assay IC50

Chain of WT KRAS (P01116 1-188 isoform P01116-2): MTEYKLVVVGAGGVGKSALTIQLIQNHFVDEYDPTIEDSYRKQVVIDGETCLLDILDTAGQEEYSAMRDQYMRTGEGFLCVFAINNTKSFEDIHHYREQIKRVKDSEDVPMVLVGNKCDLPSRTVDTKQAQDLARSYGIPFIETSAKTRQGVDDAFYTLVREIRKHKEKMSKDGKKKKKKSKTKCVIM

Compound	IC50 (WT KRAS; [1]) [nM]	IC50 (KRAS G12D; [2]) [nM]	IC50 (WT KRAS; KRAS^WT Probe Displacement Assay IC50, KRAS WT) [nM]	IC50 (KRAS G12D; KRAS^G12D Probe Displacement Assay IC50, KRAS G12D) [nM]
Cc1cc(N)cc(-c2nc3c4c(nc(O[C@@H](C)[C@@H]5C[C@@H](F)CN5C)nc4c2F)N2C[C@H]4CC[C@H](N4)[C@H]2CCO3)c1C(F)(F)F [Example 74, 3-((6aR,7S,10R)-1-fluoro-13-((S)-1-((2S,4R)-4-fluoro-1-methylpyrrolidin-2-yl)ethoxy)-5,6,6a,7,8,9,10,11-octahydro-4-oxa-3,11a,12,14,15-pentaaza-7,10methanocyclohepta[4,5]cycloocta [1,2,3-de]naphthalen-2-yl)-5-methyl-4-(trifluoromethyl)aniline]	3 to 1000	< 0.3		
Cc1cc(N)cc(-c2nc3c4c(nc(OCC5(CN6C[C@H]7CC[C@@H](C6)O7)CC5)nc4c2F)N2C[C@H]4CC[C@H](N4)[C@H]2CCO3)c1C(F)(F)F [Example 106, 3-((6aR,7S,10R)-13-((1-(((1R,5S)-8-oxa-3-azabicyclo [3.2.1]octan-3-yl)methyl)cyclopropyl)methoxy)-1-fluoro-5,6,6a, 7,8,9,10,11-octahydro-4-oxa-3,11a,12,14,15-pentaaza-7,10-methanocyclohepta [4,5]cycloocta [1,2,3-de]naphthalen-2-yl)-5-methyl-4-(trifluoromethyl)aniline]	3 to 1000	< 0.3		
Cc1cc(N)cc(-c2nc3c4c(nc(OCC5(CN6CCC(C)(O)CC6)CC5)nc4c2F)N2C[C@H]4CC[C@H](N4)[C@H]2CCO3)c1C(F)(F)F [Example 115, 1-((1-((((6aR,7S, 10R)-2-(5-amino-3-methyl-2-(trifluoromethyl)phenyl)-1-fluoro-5,6,6a,7,8,9,10,11-octahydro-4-oxa-3, 11a,12,14,15-pentaaza-7,10-methanocyclohepta [4,5]cycloocta[1,2,3-de]naphthalen-13-yl)oxy)methyl)cyclopropyl)methyl)-4-methylpiperidin-4-ol]	0.3 to 3	< 0.3		
C=C1CN2C[C@H](F)C[C@]2(COc2nc3c4c(nc(-c5cc(N)cc(Cl)c5C(F)(F)F)c(F)c4n2)OCC[C@@H]2[C@@H]4CC[C@H](CN32)N4)C1 [Example 211, 3-chloro-5-((6aR,7aS,10R)-1-fluoro-13-(((2R,7aS)-2-fluoro-6-methylenetetrahydro-1H-pyrrolizin-7a(5H)-yl)methoxy)-5,6,6a,7,8,9,10,11-octahydro-4-oxa-3,11a,12,14,15-pentaaza-7,10-methanocyclohepta[4,5]cycloocta[1,2,3-de]naphthalen-2-yl)-4-(trifluoromethyl)aniline]	3 to 1000	< 0.3		
CO[C@@H]1C[C@@H](C(C)Oc2nc3c4c(nc(-c5cc(N)cc(C)c5C(F)(F)F)c(F)c4n2)OCC[C@@H]2[C@@H]4CC[C@H](CN32)N4)N(C)C1 (single isomer, unassigned) [Example 144]	3 to 1000	< 0.3		
Cc1cc(N)cc(-c2nc3c4c(nc(O[C@H]5COCC[C@@H]5N(C)C)nc4c2F)N2C[C@H]4CC[C@H](N4)[C@H]2CCO3)c1C(F)(F)F [Example 8, (3R,4S)-3-(((6aR,7S,10R)-2-(5-amino-3-methyl-2-(trifluoromethyl)phenyl)-1-fluoro-5,6,6a,7,8,9,10,11-octahydro-4-oxa-3,11a,12,14,15-pentaaza-7,10-methanocyclohepta[4,5]cycloocta [1,2,3-de]naphthalen-13-yl)oxy)-N,N-dimethyltetrahydro-2H-pyran-4-amine]	3 to 1000	0.3 to 3		
[2H]C([2H])([2H])N1CC/C(=C\F)C(C)(C([2H])([2H])Oc2nc3c4c(nc(-c5cc(N)cc(C)c5C(F)(F)F)c(F)c4n2)OCC[C@@H]2[C@@H]4CC[C@H](CN32)N4)C1 (single isomer, unassigned) [Example 242]	3 to 1000	< 0.3		
[2H]C([2H])([2H])c1cc(N)cc(-c2nc3c4c(nc(OC[C@]5(CN(C)C)CC5(F)F)nc4c2F)N2C[C@H]4CC[C@H](N4)[C@H]2CCO3)c1C(F)(F)F [Example 47, 3-((6aR,7S,10R)-13-(((R)-1-((dimethylamino)methyl)-2,2-difluorocyclopropyl)methoxy)-1-fluoro-5,6,6a,7,8,9,10,11-octahydro-4-oxa-3,11a,12,14,15-pentaaza-7,10-methanocyclohepta[4,5]cycloocta [1,2,3-de]naphthalen-2-yl)-5-(methyl-d3)-4-(trifluoromethyl)aniline]	3 to 1000	< 0.3		
Cc1cc(N)cc(-c2nc3c4c(nc(OC[C@@]56CCCN5CC(=C(F)F)C6)nc4c2F)N2C[C@H]4CC[C@H](N4)[C@H]2CCO3)c1C(F)(F)F [Example 200, 3-((6aR,7S,10R)-13-(((S)-2-(difluoromethylene)tetrahydro-1H-pyrrolizin-7a(5H)-yl)methoxy)-1-fluoro-5,6,6a,7,8,9,10,11-octahydro-4-oxa-3,11a,12,14,15-pentaaza-7,10-methanocyclohepta[4,5]cycloocta[1,2,3-de]naphthalen-2-yl)-5-methyl-4-(trifluoromethyl)aniline]	3 to 1000	< 0.3		
Cc1cc(N)cc(-c2nc3c4c(nc(OCC5(CN6CCCC67CCOC7)CC5)nc4c2F)N2C[C@H]4CC[C@H](N4)[C@H]2CCO3)c1C(F)(F)F (stereo partly drawn) [Example 190, 3-((6aR,7S,10R)-13-((1-((7-oxa-1-azaspiro[4.4]nonan-1-yl)methyl)cyclopropyl)methoxy)-1-fluoro-5,6,6a,7,8,9,10,11-octahydro-4-oxa-3,11a,12,14,15-pentaaza[7,10]methanocyclohepta[4,5]cycloocta[1,2,3-de]naphthalen-2-yl)-5-methyl-4-(trifluoromethyl)aniline]	3 to 1000	< 0.3		
Cc1cc(N)cc(-c2nc3c4c(nc(O[C@@H](C)[C@@H]5[C@H]6C[C@H]6CN5C)nc4c2F)N2C[C@H]4CC[C@H](N4)[C@H]2CCO3)c1C(F)(F)F [Example 223, 3-((6aR,7S,10R)-1-fluoro-13-((S)-1-((1S,2S,5R)-3-methyl-3-azabicyclo[3.1.0]hexan-2-yl)ethoxy)-5,6,6a,7,8,9,10,11-octahydro-4-oxa-3,11a,12,14,15-pentaaza-7,10-methanocyclohepta[4,5]cycloocta[1,2,3-de]naphthalen-2-yl)-5-methyl-4-(trifluoromethyl)aniline]	3 to 1000	< 0.3		
COC[C@@H]1[C@H]2C[C@H]2CN1CC1(COc2nc3c4c(nc(-c5cc(N)cc(C)c5C(F)(F)F)c(F)c4n2)OCC[C@@H]2[C@@H]4CC[C@H](CN32)N4)CC1 [Example 182, 3-((6aR,7S,10R)-1-fluoro-13-((1-(((1S,2S,5R)-2-(methoxymethyl)-3-azabicyclo[3.1.0]hexan-3-yl)methyl)cyclopropyl)methoxy)-5,6,6a,7,8,9,10,11-octahydro-4-oxa-3,11a,12,14,15-pentaaza-7,10-methanocyclohepta[4,5]cycloocta[1,2,3-de]naphthalen-2-yl)-5-methyl-4-(trifluoromethyl)aniline]	3 to 1000	< 0.3		
Cc1cc(N)cc(-c2nc3c4c(nc(O[C@@H](C)[C@@H]5CCCN5C5CCOC5)nc4c2F)N2C[C@H]4CC[C@H](N4)[C@H]2CCO3)c1C(F)(F)F (single isomer, unassigned) [Example 228]	3 to 1000	< 0.3		
Cc1cc(N)cc(-c2nc3c4c(nc(OCC5(CN6CCC(F)(F)CC6)CC5)nc4c2F)N2C[C@H]4CC[C@H](N4)[C@H]2CCO3)c1C(F)(F)F [Example 70, 3-((6aR,7S,10R)-13-((1-((4,4-difluoropiperidin-1-yl)methyl)cyclopropyl)methoxy)-1-fluoro-5,6,6a,7,8,9,10,11-octahydro-4-oxa-3,11a,12,14,15-pentaaza-7,10-methanocyclohepta[4,5]cycloocta [1,2,3-de]naphthalen-2-yl)-5-methyl-4-(trifluoromethyl)aniline]	0.3 to 3	< 0.3		
CO[C@H]1CCN(CC2(COc3nc4c5c(nc(-c6cc(N)cc(C)c6C(F)(F)F)c(F)c5n3)OCC[C@@H]3[C@@H]5CC[C@H](CN43)N5)CC2)C1 [Example 88, 3-((6aR,7S,10R)-1-fluoro-13-((1-(((S)-3-methoxypyrrolidin-1-yl)methyl)cyclopropyl)methoxy)-5,6,6a,7,8,9,10,11-octahydro-4-oxa-3,11a,12,14,15-pentaaza-7,10-methanocyclohepta [4,5]cycloocta [1,2,3-de]naphthalen-2-yl)-5-methyl-4-(trifluoromethyl) aniline]			3 to 1000	< 0.3
C=C1CN2C[C@H](F)C[C@@]2(COc2nc3c4c(nc(-c5cc(N)cc(C)c5C(F)(F)F)c(F)c4n2)OCC[C@@H]2[C@@H]4CC[C@H](CN32)N4)C1 [Example 208, 3-((6aR,7S,10R)-1-fluoro-13-(((2R,7aR)-2-fluoro-6-methylenetetrahydro-1H-pyrrolizin-7a(5H)-yl)methoxy)-5,6,6a,7,8,9,10,11-octahydro-4-oxa-3,11a,12,14,15-pentaaza-7,10-methanocyclohepta[4,5]cycloocta[1,2,3-de]naphthalen-2-yl)-5-methyl-4-(trifluoromethyl)aniline]	0.3 to 3	< 0.3		
Cc1cc(N)cc(-c2nc3c4c(nc(OCC5(CN6CCC(OC(F)(F)F)CC6)CC5)nc4c2F)N2C[C@H]4CC[C@H](N4)[C@H]2CCO3)c1C(F)(F)F [Example 177, 3-((6aR,7S,10R)-1-fluoro-13-((1-((4-(trifluoromethoxy)piperidin-1-yl)methyl)cyclopropyl)methoxy)-5,6,6a,7,8,9,10,11-octahydro-4-oxa-3,11a,12,14,15-pentaaza-7,10-methanocyclohepta[4,5]cycloocta[1,2,3-de]naphthalen-2-yl)-5-methyl-4-(trifluoromethyl)aniline]	0.3 to 3	< 0.3		
